Data published in patent US9708314B2, “Heterocyclic amide compound” (NISSAN CHEMICAL INDUSTRIES, LTD., priority 2013, dated 2017).

How the values were obtained:
Type in all cases: in vivo
[1] = system: Digitaria ciliaris; assay: Test Example 4: herbicidal effect by application to foliage (diluvial soil, plastic box); settings: foliage application
Procedure, shortened: (§1)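 Scores run from 0 (herbicidal ratio ≤5%) to 5 (≥90%, almost fully withered) and were assessed three weeks after foliar spraying. Seedlings had been raised for 14 days at 25-30° C in sterilized diluvial soil before treatment, with the emulsion diluted in water to the stated g/ha dose.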

[2] = system: Stellaria media; assay: as above; settings: foliage application
Procedure, shortened: as §1

[3] = system: Amaranthus retroflexus; assay: as above; settings: foliage application
Procedure, shortened: as §1

[4] = system: Echinochloa crus-galli var. crus-galli; assay: as above; settings: foliage application
Procedure, shortened: as §1

[5] = system: Galium spurium; assay: as above; settings: foliage application
Procedure, shortened: as §1

[6] = system: Lolium multiflorum Lam.; assay: as above; settings: foliage application
Procedure, shortened: as §1

[7] = system: Apera spica-venti.; assay: as above; settings: foliage application
Procedure, shortened: as §1

[8] = system: Setaria viridis; assay: as above; settings: foliage application
Procedure, shortened: as §1

[9] = system: Chenopodium album; assay: as above; settings: foliage application
Procedure, shortened: as §1

[10] = system: Avena fatua; assay: as above; settings: foliage application
Procedure, shortened: as §1

[11] = system: Abutilon theophrasti; assay: as above; settings: foliage application
Procedure, shortened: as §1

[12] = system: Veronica persica; assay: as above; settings: Application herbicide amount 320 g/ha; foliage application
Procedure, shortened: as §1

[13] = system: Alopecurus myosuroides; assay: as above; settings: foliage application
Procedure, shortened: as §1

[14] = system: directly sowed Oryza sativa; assay: Test Example 3: effect on crop by application to foliage (Wagner pot, water depth 0.1-0.5 cm); settings: Nineteenth Table, application to foliage
Procedure, shortened: (§2)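 Seeds were sown in alluvial soil in Wagner pots, grown for 14 days at 25–30 °C, then sprayed uniformly on foliage with the emulsified compound diluted to a given rate per hectare. Injury was graded three weeks after treatment from 0 (≤5%) to 5 (≥90%).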

[15] = system: Echinochloa crus-galli var. crus-galli; assay: Test Example 3: herbicidal effect by application to foliage (Wagner pot, water depth 0.1-0.5 cm); settings: Nineteenth Table, application to foliage
Procedure, shortened: as §2

[16] = system: Cyperus difformis; assay: as above; settings: Nineteenth Table, application to foliage
Procedure, shortened: as §2

[17] = system: Leptochloa chinensis; assay: as above; settings: Nineteenth Table, application to foliage
Procedure, shortened: as §2

[18] = system: Triticum aestivum; assay: Test Example 4: effect on crop by application to foliage (diluvial soil, plastic box); settings: foliage application
Procedure, shortened: as §1

[19] = system: Beta vulgaris ssp. vulgaris; assay: as above; settings: foliage application
Procedure, shortened: as §1

[20] = system: Zea mays; assay: as above; settings: foliage application
Procedure, shortened: as §1

[21] = system: Brassica campestris L.; assay: as above; settings: foliage application
Procedure, shortened: as §1

[22] = system: Glycine max; assay: as above; settings: foliage application
Procedure, shortened: as §1

[23] = system: directly sowed Oryza sativa; assay: as above; settings: foliage application, 131 g/ha
Procedure, shortened: as §1

[24] = Application herbicide amount 320 g/ha
[25] = application herbicide amount 320 g/ha
[26] = application herbicide amount 131 g/ha

## CC(C)c1nnc2c(C(=O)Nc3nnc(CS(C)(=O)=O)o3)ccc(C(F)(F)F)n12 [1-142]
[1]; [24]
  F (Digitaria ciliaris) herbicidal effect grade: 1 (Herbicidal ratio of 5% or more and less than 20%)
[2]; [24]
  P (Stellaria media) herbicidal effect grade: 2 (Herbicidal ratio of 20% or more and less than 40%)
[3]; [24]
  N (Amaranthus retroflexus) herbicidal effect grade: 1 (Herbicidal ratio of 5% or more and less than 20%)
[4]; [24]
  H (Echinochloa crus-galli var. crus-galli) herbicidal effect grade: 3 (Herbicidal ratio of 40% or more and less than 70%)
[5]; [24]
  Q (Galium spurium) herbicidal effect grade: 1 (Herbicidal ratio of 5% or more and less than 20%)
[6]; [24]
  K (Lolium multiflorum Lam.) herbicidal effect grade: 0 (Herbicidal ratio of 5% or less (almost no effect))
[7]; [24]
  L (Apera spica-venti.) herbicidal effect grade: 0 (Herbicidal ratio of 5% or less (almost no effect))
[8]; [24]
  G (Setaria viridis) herbicidal effect grade: 0 (Herbicidal ratio of 5% or less (almost no effect))
[9]; [24]
  O (Chenopodium album) herbicidal effect grade: 4 (Herbicidal ratio of 70% or more and less than 90%)
[10]; [24]
  I (Avena fatua) herbicidal effect grade: 0 (Herbicidal ratio of 5% or less (almost no effect))
[11]; [24]
  M (Abutilon theophrasti) herbicidal effect grade: 0 (Herbicidal ratio of 5% or less (almost no effect))
[12]
  R (Veronica persica) herbicidal effect grade: 0 (Herbicidal ratio of 5% or less (almost no effect))
[13]; [24]
  J (Alopecurus myosuroides) herbicidal effect grade: 0 (Herbicidal ratio of 5% or less (almost no effect))
[14]; [25]
  b (effect on crop grade): 0 (Herbicidal ratio of 5% or less (almost no effect))
[15]; [25]
  H (herbicidal effect grade): 3 (Herbicidal ratio of 40% or more and less than 70%)
[16]; [25]
  E (herbicidal effect grade): 0 (Herbicidal ratio of 5% or less (almost no effect))
[17]; [25]
  D (herbicidal effect grade): 1 (Herbicidal ratio of 5% or more and less than 20%)
[18]; [24]
  e (Triticum aestivum) effect on crop grade: 0 (Herbicidal ratio of 5% or less (almost no effect))
[19]; [24]
  f (Beta vulgaris ssp. vulgaris) effect on crop grade: 3 (Herbicidal ratio of 40% or more and less than 70%)
[20]; [24]
  c (Zea mays) effect on crop grade: 0 (Herbicidal ratio of 5% or less (almost no effect))
[21]; [24]
  g (Brassica campestris L.) effect on crop grade: 0 (Herbicidal ratio of 5% or less (almost no effect))
[22]; [24]
  d (Glycine max) effect on crop grade: 0 (Herbicidal ratio of 5% or less (almost no effect))

## CC(C)c1nnc2c(C(=O)Nc3nnnn3C)ccc(-c3ccccc3)n12 [2-055]
[1]; 131 g/ha
  F (Digitaria ciliaris) herbicidal effect grade: 0 (Herbicidal ratio of 5% or less (almost no effect))
[2]; 131 g/ha
  P (Stellaria media) herbicidal effect grade: 4 (Herbicidal ratio of 70% or more and less than 90%)
[3]; 131 g/ha
  N (Amaranthus retroflexus) herbicidal effect grade: 3 (Herbicidal ratio of 40% or more and less than 70%)
[4]; 131 g/ha
  H (Echinochloa crus-galli var. crus-galli) herbicidal effect grade: 0 (Herbicidal ratio of 5% or less (almost no effect))
[5]; 131 g/ha
  Q (Galium spurium) herbicidal effect grade: 0 (Herbicidal ratio of 5% or less (almost no effect))
[6]; 131 g/ha
  K (Lolium multiflorum Lam.) herbicidal effect grade: 0 (Herbicidal ratio of 5% or less (almost no effect))
[7]; 131 g/ha
  L (Apera spica-venti.) herbicidal effect grade: 0 (Herbicidal ratio of 5% or less (almost no effect))
[8]; 131 g/ha
  G (Setaria viridis) herbicidal effect grade: 0 (Herbicidal ratio of 5% or less (almost no effect))
[9]; 131 g/ha
  O (Chenopodium album) herbicidal effect grade: 5 (Herbicidal ratio of 90% or more (almost completely withered))
[10]; 131 g/ha
  I (Avena fatua) herbicidal effect grade: 0 (Herbicidal ratio of 5% or less (almost no effect))
[11]; 131 g/ha
  M (Abutilon theophrasti) herbicidal effect grade: 4 (Herbicidal ratio of 70% or more and less than 90%)
[13]; 131 g/ha
  J (Alopecurus myosuroides) herbicidal effect grade: 0 (Herbicidal ratio of 5% or less (almost no effect))
[14]; [26]
  b (effect on crop grade): 0 (Herbicidal ratio of 5% or less (almost no effect))
[15]; [26]
  H (herbicidal effect grade): 2 (Herbicidal ratio of 20% or more and less than 40%)
[16]; [26]
  E (herbicidal effect grade): 0 (Herbicidal ratio of 5% or less (almost no effect))
[17]; [26]
  D (herbicidal effect grade): 0 (Herbicidal ratio of 5% or less (almost no effect))
[23]
  d (directly sowed Oryza sativa) effect on crop grade: 1 (Herbicidal ratio of 5% or more and less than 20%)
[18]; 131 g/ha
  e (Triticum aestivum) effect on crop grade: 0 (Herbicidal ratio of 5% or less (almost no effect))
[19]; 131 g/ha
  f (Beta vulgaris ssp. vulgaris) effect on crop grade: 1 (Herbicidal ratio of 5% or more and less than 20%)
[20]; 131 g/ha
  b (Zea mays) effect on crop grade: 0 (Herbicidal ratio of 5% or less (almost no effect))
[21]; 131 g/ha
  g (Brassica campestris L.) effect on crop grade: 0 (Herbicidal ratio of 5% or less (almost no effect))
[22]; 131 g/ha
  c (Glycine max) effect on crop grade: 0 (Herbicidal ratio of 5% or less (almost no effect))
